Where two headings read alike, the source gives them in different places. Marks after values point to notes of the source that are not given here.
Test system: Hep 3B cells
Test: MTT cell viability assay, Hep 3B cells (serum-free DMEM)
Conditions: for viability at 0.005 µM / viability at 0.01 µM / viability at 0.02 µM / viability at 0.05 µM / viability at 0.1 µM / viability at 0.2 µM / viability at 0.5 µM / viability at 1 µM / IC50 / viability at 0.002 µM: Homo sapiens, Hep3B
[1] = no lovastatin 48 hr, then taxol 10 nM 48 hr
[2] = no lovastatin 72 hr, then taxol 2 nM 72 hr
[3] = no lovastatin 72 hr, then taxol 5 nM 48 hr
[4] = no lovastatin 72 hr, then taxol 5 nM 72 hr
[5] = no lovastatin 72 hr, then taxol 10 nM 72 hr

SMILES: CC(=O)O[C@H]1C(=O)[C@@]2(C)[C@H]([C@H](OC(=O)c3ccccc3)[C@]3(O)C[C@H](OC(=O)[C@H](O)[C@@H](NC(=O)c4ccccc4)c4ccccc4)C(C)=C1C3(C)C)[C@]1(OC(C)=O)CO[C@@H]1C[C@@H]2O [Taxol, paclitaxel]
- viability at 0.005 µM (48 h, read-out: Cell viability, taxol 5 nM, 48 hr): 91.6 ± 0.5%
- viability at 0.005 µM (48 h, read-out: Cell viability, taxol 5 nM, 48 hr, Table 9): 97.5 ± 3.1%
- viability at 0.01 µM (48 h, read-out: Cell viability, taxol 10 nM, 48 hr): 87.1 ± 1.5%
- viability at 0.01 µM (48 h, read-out: Cell viability, taxol 10 nM, 48 hr, Table 9): 89.1 ± 3%
- viability at 0.02 µM (48 h, read-out: Cell viability, taxol 20 nM, 48 hr): 85.4 ± 0.9%
- viability at 0.05 µM (48 h, read-out: Cell viability, taxol 50 nM, 48 hr): 83.5 ± 0.9%
- viability at 0.1 µM (48 h, read-out: Cell viability, taxol 100 nM, 48 hr): 74.9 ± 1.8%
- viability at 0.2 µM (48 h, read-out: Cell viability, taxol 200 nM, 48 hr): 64.7 ± 4.6%
- viability at 0.5 µM (48 h, read-out: Cell viability, taxol 500 nM, 48 hr): 56.2 ± 0.8%
- viability at 1 µM (48 h, read-out: Cell viability, taxol 1000 nM, 48 hr): 55.3 ± 0.5%
- IC50 (48 h, read-out: IC50 (cell viability), 48 hr, Table 8): 1119 ± 10.1 nM
- IC50 (48 h, read-out: IC50 (cell viability), 48 hr, Table 9): 45.9 nM
- viability at 0.002 µM (72 h, read-out: Cell viability, taxol 2 nM, 72 hr): 94 ± 3.6%
- viability at 0.002 µM (72 h, read-out: Cell viability, taxol 2 nM, 72 hr, Table 9): 94 ± 3.6%
- viability at 0.005 µM (72 h, read-out: Cell viability, taxol 5 nM, 72 hr): 91.7 ± 3.7%
- viability at 0.005 µM (72 h, read-out: Cell viability, taxol 5 nM, 72 hr, Table 9): 91.7 ± 3.7%
- viability at 0.01 µM (72 h, read-out: Cell viability, taxol 10 nM, 72 hr): 88.5 ± 2.4%
- viability at 0.01 µM (72 h, read-out: Cell viability, taxol 10 nM, 72 hr, Table 9): 88.5 ± 2.4%
- viability at 0.02 µM (72 h, read-out: Cell viability, taxol 20 nM, 72 hr): 85.6 ± 1.1%
- viability at 0.05 µM (72 h, read-out: Cell viability, taxol 50 nM, 72 hr): 71.2 ± 4.2%
- viability at 0.1 µM (72 h, read-out: Cell viability, taxol 100 nM, 72 hr): 52.7 ± 2.8%
- viability at 0.2 µM (72 h, read-out: Cell viability, taxol 200 nM, 72 hr): 47 ± 1%
- viability at 0.5 µM (72 h, read-out: Cell viability, taxol 500 nM, 72 hr): 32.2 ± 4.7%
- viability at 1 µM (72 h, read-out: Cell viability, taxol 1000 nM, 72 hr): 24.6 ± 2.9%
- IC50 (72 h, read-out: IC50 (cell viability), 72 hr, Table 8): 147 ± 14.2 nM
- IC50 (72 h, read-out: IC50 (cell viability), 72 hr, Table 9): 43.5 nM
- viability at 0.002 µM (96 h, read-out: Cell viability, taxol 2 nM alone, 96 hr, Table 10): 92.6 ± 1.9%
- viability at 0.002 µM (96 h, read-out: Cell viability, taxol 2 nM, 96 hr): 94.1 ± 7.9%
- viability at 0.005 µM (96 h, read-out: Cell viability, taxol 5 nM alone, 96 hr, Table 10): 79.5 ± 4.6%
- viability at 0.005 µM (96 h, read-out: Cell viability, taxol 5 nM, 96 hr): 92.4 ± 4.8%
- viability at 0.01 µM (96 h, read-out: Cell viability, taxol 10 nM alone, 96 hr, Table 10): 60.3 ± 3.4%
- viability at 0.01 µM (96 h, read-out: Cell viability, taxol 10 nM, 96 hr): 82.3 ± 6.6%
- IC50 (96 h, read-out: IC50 (cell viability), 96 hr): 28.2 nM
- viability at 0.002 µM (120 h, read-out: Cell viability, taxol 2 nM, 120 hr): 94.2 ± 2.5%
- viability at 0.005 µM (120 h, read-out: Cell viability, taxol 5 nM, 120 hr): 82.7 ± 3.7%
- viability at 0.01 µM (120 h, read-out: Cell viability, taxol 10 nM, 120 hr): 71.9 ± 4.6%
- IC50 (120 h, read-out: IC50 (cell viability), 120 hr): 17.8 nM
- Cell viability (no lovastatin 48 hr, then taxol 2 nM 48 hr): 102.4 ± 4.7^a % of control
- Ratio, inhibition (%) Hep 3B/inhibition (%) Hep G2 (no lovastatin 48 hr, then taxol 5 nM 48 hr): 0.3***
- Cell viability [1]: 76.3 ± 1.3^c % of control
- Ratio, inhibition (%) Hep 3B/inhibition (%) Hep G2 [1]: 0.6***
- Ratio, inhibition (%) Hep 3B/inhibition (%) Hep G2 (no lovastatin 72 hr, then taxol 2 nM 48 hr): 0.4***
- Cell viability [2]: 91.1 ± 1.1^b % of control
- Ratio, inhibition (%) Hep 3B/inhibition (%) Hep G2 [2]: 0.4*
- Cell viability [3]: 86.9 ± 1.3^b % of control
- Ratio, inhibition (%) Hep 3B/inhibition (%) Hep G2 [3]: 0.4***
- Cell viability [4]: 96.5 ± 0.6^a % of control
- Ratio, inhibition (%) Hep 3B/inhibition (%) Hep G2 [4]: 0.1***
- Ratio, inhibition (%) Hep 3B/inhibition (%) Hep G2 (no lovastatin 72 hr, then taxol 10 nM 48 hr): 0.4**
- Cell viability [5]: 78.0 ± 0.4^c % of control
- Ratio, inhibition (%) Hep 3B/inhibition (%) Hep G2 [5]: 0.6**
- Ratio, inhibition (%) Hep 3B/inhibition (%) Hep G2 (taxol 2 nM alone, 96 hr, Table 10): 0.3**
- Ratio, inhibition (%) Hep 3B/inhibition (%) Hep G2 (taxol 2 nM, 48 hr): 1.3*
- Ratio, inhibition (%) Hep 3B/inhibition (%) Hep G2 (taxol 2 nM, 72 hr): 0.6*
- Ratio, inhibition (%) Hep 3B/inhibition (%) Hep G2 (taxol 5 nM alone, 96 hr, Table 10): 0.4**
- Ratio, inhibition (%) Hep 3B/inhibition (%) Hep G2 (taxol 5 nM, 48 hr): 0.3**
- Ratio, inhibition (%) Hep 3B/inhibition (%) Hep G2 (taxol 5 nM, 72 hr): 0.2**
- Ratio, inhibition (%) Hep 3B/inhibition (%) Hep G2 (taxol 10 nM alone, 96 hr, Table 10): 0.5***
- Ratio, inhibition (%) Hep 3B/inhibition (%) Hep G2 (taxol 10 nM, 48 hr): 0.4***
- Ratio, inhibition (%) Hep 3B/inhibition (%) Hep G2 (taxol 10 nM, 72 hr): 0.2***
- Ratio, inhibition (%) Hep 3B/inhibition (%) Hep G2 (taxol 20 nM, 48 hr): 0.3***
- Ratio, inhibition (%) Hep 3B/inhibition (%) Hep G2 (taxol 20 nM, 72 hr): 0.2***
- Ratio, inhibition (%) Hep 3B/inhibition (%) Hep G2 (taxol 50 nM, 48 hr): 0.3***
- Ratio, inhibition (%) Hep 3B/inhibition (%) Hep G2 (taxol 50 nM, 72 hr): 0.4***
- Ratio, inhibition (%) Hep 3B/inhibition (%) Hep G2 (taxol 100 nM, 48 hr): 0.4**
- Ratio, inhibition (%) Hep 3B/inhibition (%) Hep G2 (taxol 100 nM, 72 hr): 0.6**
- Ratio, inhibition (%) Hep 3B/inhibition (%) Hep G2 (taxol 200 nM, 48 hr): 0.5**
- Ratio, inhibition (%) Hep 3B/inhibition (%) Hep G2 (taxol 200 nM, 72 hr): 0.6**
- Ratio, inhibition (%) Hep 3B/inhibition (%) Hep G2 (taxol 500 nM, 48 hr): 0.6**
- Ratio, inhibition (%) Hep 3B/inhibition (%) Hep G2 (taxol 500 nM, 72 hr): 0.8**
- Ratio, inhibition (%) Hep 3B/inhibition (%) Hep G2 (taxol 1000 nM, 48 hr): 0.5**
- Ratio, inhibition (%) Hep 3B/inhibition (%) Hep G2 (taxol 1000 nM, 72 hr): 0.8**
